Assay results reported in paper PMC2196011 (The Journal of Experimental Medicine, 2002).

Target: T1, GST-PfNSMase (PfNSM product; plasmodial SM/LCPL-PLC) (Plasmodium falciparum, UniProt Q8WSF5)
T1 sequence (Q8WSF5 1-393): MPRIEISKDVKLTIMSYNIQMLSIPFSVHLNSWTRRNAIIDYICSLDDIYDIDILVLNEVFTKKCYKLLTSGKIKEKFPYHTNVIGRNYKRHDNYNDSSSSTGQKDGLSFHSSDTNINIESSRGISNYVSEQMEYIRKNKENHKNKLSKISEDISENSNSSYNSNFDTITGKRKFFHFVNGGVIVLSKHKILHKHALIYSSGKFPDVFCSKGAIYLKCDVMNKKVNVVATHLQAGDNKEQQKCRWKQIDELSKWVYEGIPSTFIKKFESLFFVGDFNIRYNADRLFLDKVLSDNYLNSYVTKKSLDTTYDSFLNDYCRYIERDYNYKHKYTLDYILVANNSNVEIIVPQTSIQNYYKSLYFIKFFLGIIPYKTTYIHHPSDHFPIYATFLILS
Experiment: competition of […]lysoPtdCho hydrolysis, E. coli membrane fraction
Assay type: biochemical
Conditions: 10 μM [palmitoyl-1-14C]lysoPtdCho; detergent-free; 10 mM MgCl2; pH 7.5; 37°C

Row | Structure (SMILES) | % of control activity
1 | CCCCCCCCCCCCCCCCOC[C@@H](O)COP(=O)([O-])OCC[N+](C)(C)C [lysoPAF] | The activity was moderately competed by PAF and lysoPAF
2 | CCCCCCCCCCCCC/C=C/[C@@H](O)[C@@H](N)COP(=O)([O-])OCC[N+](C)(C)C [sphingosylphosphocholine] | lysoPtdCho was strongly competed by sphingosylphosphocholine
